Series [1] relates to HepG2 human hepatoma cell line. In words: Hepatotoxicity, MTS assay in HepG2 cells. The class given is cell-based. The conditions noted are these: 72 h (Fig. 6 legend). The method, then: Hepatotoxicity was evaluated by means of an MTS assay described above (section 23) with a HepG2 human hepatoma cell line (ATCC:HB-8065), [48]. […] Compound 10f was tested in a single experiment in quadruplicate.

Series [2] is described as follows: Metabolic stability in mouse liver microsomes (MLMs). The class given is in vitro ADME. The settings on record: TRIS-HCl pH 7.4 buffer solution without microsomes, 120 min.
Experiment in series [3]: as above
It counts as in vitro ADME. The settings on record: for Metabolic pathway: metabolites identified by UPLC-MS; for remaining at 2 h, 50 µM: mouse, liver microsomes, MLMs 1 mg/ml. The method, then: The ADME-Tox parameters of 10f were analyzed according to described previously protocols, [45] and included: Parallel Artificial Membrane Permeability Assay (PAMPA) passive permeability testing, the influence on CYP3A4 activity, metabolic stability in mouse liver microsomes, and hepatotoxicity assessment with HepG2 cells.
The metabolic stability of 10f was estimated with mouse liver microsomes (MLMs) (Sigma-Aldrich, St. Louis, MO, USA). The tested compound (50 µM) was incubated in the presence of MLMs (1 mg/ml) for 120 min in a buffer (10 mM Tris–HCl buffer at 37 °C). Then, to terminate the reaction, cold methanol was added to the reaction mixture. The precipitated MLMs were centrifuged and the supernatant was analyzed with a LC/MS Waters ACQUITY™ TQD system with the TQ Detector (Waters, Milford, USA).

The test system of series [4] is human astrocytoma cell line 1321 N1. As to the kind of experiment: MTS cytotoxicity test in 1321 N1 astrocytoma cells. It counts as cell-based. The settings on record: 1321 N1 cells; for concentration at which activity (statistically significant suppression of cell viability) was seen / IC50: MTS; for viability of the cells compared to vehicle control: 24 h exposure; for IC50: 50 % decrease relative to the maximum inhibition observed, read-out: IC50 (cell viability). The method, then:
(§1) The cytotoxic properties of newly synthetized compounds were assessed in human astrocytoma cell line 1321 N1 (RRID:CVCL_0110, European Collection of Authenticated Cell Cultures, ECACC:86030402) and human breast adenocarcinoma cell line MDA-MB-231 (RRID:CVCL_0062; ATCC:HTB-26). ECACC and ATCC perform thorough cell line authentication utilizing Short Tandem Repeat (STR) profiling. Upon receipt of the cell lines, the cells were expanded for a few passages to enable the generation of new frozen stocks. The cells were resuscitated as needed and used for<6 months after resuscitation (no>15 passages). Cell line 1321 N1 was cultured in high-glucose (4500 mg/L) Dulbecco's modified Eagle's medium (DMEM) supplemented with 10 % fetal bovine serum (FBS). The MDA-MB-231 cells were maintained in RPMI-1640 with 10 % FBS. All cell culture media were additionally fortified with penicillin (100 U/mL), streptomycin (100 µg/mL), and amphotericin B (250 ng/mL) to prevent bacterial and yeast contamination. The cell culture media and supplements used in this study were purchased from Sigma-Aldrich. The cells were maintained at 37 °C in a humidified 5 % incubator in an atmosphere of 5 % CO2 and 95 % air.
The cells were subcultured upon reaching the confluency of about 80 %. Cell detachment was facilitated with TrypLE solution (Thermo Fisher Scientific). The cells were counted in a Z2 particle counter (Beckman Coulter), then plated at 5,000 cells/well in 96-well plates (Eppendorf) in 100 µL of full growth medium and cultured overnight to enable cell attachment. Next day, the cells were subjected to either vehicle (0.1 % DMSO) or our compounds of interest for 24, 48, or 72 h. The assessment of cell viability was performed by adding 20 µL/well of the mixture of 3-(4,5-dimethylthiazol-2-yl)-5-(3-carboxymethoxyphenyl)-2-(4-sulfophenyl)–2H-tetrazolium, inner salt (MTS) and phenazine ethosulfate from Promega (#G3580). After 3 h of incubation, the absorbance was recorded at 490 nm using Synergy H1 plate reader (Biotek) The experiments were carried out in quadruplicates and were repeated three times. The obtained values were normalized to vehicle control and plotted.
The IC50 values were calculated with GraphPad Prism 8.0.1 software (nonlinear regression, log(inhibitor) vs normalized response) as the dose that causes a 50 % decrease in cell viability relative to the maximum inhibition observed. Statistical significance determination was evaluated with GraphPad Prism 5.0.1 software using one-way ANOVA, followed by Bonferroni’s comparison test (p < 0.05).

Series [5] is described as follows: PAMPA passive permeability. The class given is in vitro ADME. The conditions noted are these: PBS pH 7.4, 5 h, room temperature. The procedure: The ADME-Tox parameters of 10f were analyzed according to described previously protocols, [45] and included: Parallel Artificial Membrane Permeability Assay (PAMPA) passive permeability testing, the influence on CYP3A4 activity, metabolic stability in mouse liver microsomes, and hepatotoxicity assessment with HepG2 cells. The pre-coated PAMPA Plate System Gentest was sourced from Corning (Tewksbury, MA, USA). […] The plate was incubated at room temperature for 5 h without stirring. Then, 50 μL was aspirated from both Acceptor (A) and Donor (D) wells and then diluted with a 50 µL solution of an internal standard (IS). The concentrations of the tested compounds in the A and D wells were estimated with an LC/MS Waters ACQUITY™ TQD system with the TQ Detector (Waters, Milford, USA). The Pe values were estimated according to the proper formulas provided by Corning and described previously in the literature.

The test system of series [6] is human breast adenocarcinoma cell line MDA-MB-231. In words: MTS cytotoxicity test in MDA-MB-231 cells. It counts as cell-based. The conditions noted are these: 24 h, read-out: IC50 (cell viability). The procedure:
as §1, with “All cell culture media were additionally fortified with penicillin (100 U/mL), streptomycin (100 µg/mL), and amphotericin B (250 ng/mL) to prevent bacterial and yeast contamination. The cell culture media and supplements used in this study were purchased from Sigma-Aldrich. The cells were maintained at 37 °C in a humidified 5 % incubator in an atmosphere of 5 % CO2 and 95 % air.” left out
The cells were subcultured upon reaching the confluency of about 80 %. […] The cells were counted in a Z2 particle counter (Beckman Coulter), then plated at 5,000 cells/well in 96-well plates (Eppendorf) in 100 µL of full growth medium and cultured overnight to enable cell attachment. […] After 3 h of incubation, the absorbance was recorded at 490 nm using Synergy H1 plate reader (Biotek) The experiments were carried out in quadruplicates and were repeated three times. […]

This note sets out measurements from paper PMC9529985, “Eco-friendly methods of synthesis and preliminary biological evaluation of sulfonamide derivatives of cyclic arylguanidines” (Ultrasonics Sonochemistry, 2022).

SMILES strings stand for the structures. Where two headings read alike, the source gives them in different places.

For the compound `O=S(=O)(Nc1nc2ccccc2[nH]1)c1ccccc1` [10a, N-(1H-benzimidazol-2-yl)benzenesulfonamide], the melting point was > 300 °C.
The compound `O=S(=O)(NC1=NCc2ccccc2N1)c1ccccc1` [10e, N-(1,4-dihydroquinazolin-2-yl)benzenesulfonamide] gave a melting point of 182 to 186 °C.
As to `O=S(=O)(NC1=NCc2ccccc2N1)c1cccc2ccccc12` [10f, N-(1,4-dihydroquinazolin-2-yl)naphthalene-1-sulfonamide], in series [1] (HepG2, 1–10 µM), the “hepatotoxicity (in words)” value is on record as “did not exhibit hepatotoxic properties”. For the same compound, the “effect on cell viability (in words)” value in series [1] (HepG2, 50 or 100 µM) is “statistically significant decrease in cells viability”. In addition, the “dehydrogenation in control sample” value in series [2] amounted to 5%. The “metabolic stability (in words)” value in series [3] (MLMs, 120 min) is on record as “unstable”. The compound further yielded a metabolized in series [3] (MLMs, 120 min incubation, UPLC) of 97%. The Metabolic pathway result in series [3] (MLMs) is “double hydroxylation and double bound reduction”. In series [3] (120 min), this compound displayed a fraction remaining at 2 h, 50 µM of 3%. The “concentration at which activity (statistically significant suppression of cell viability) was seen” value in series [4] (24 h) amounted to 1 µM. For the same compound, the “viability of the cells compared to vehicle control” value in series [4] was found to be 48.0%. Also, the IC50 is 8.22 µM in series [4] (Homo sapiens, 24 h) and 0.13 µM in series [4] (Homo sapiens, 72 h). In addition, the viability at 50 µM in series [4] (Homo sapiens, 72 h, 50 µM, read-out: cells still viable) is 32%. Further, in series [5] (read-out: permeability coefficient Pe), the Papp at 5 h, 200 µM turned out to be 5 ± 1.5 ×10⁻⁶ cm/s.
On to `O=S(=O)(NC1=NCc2ccccc2N1)c1ccc2ccccc2c1` [10g, N-(1,4-dihydroquinazolin-2-yl)naphthalene-2-sulfonamide], for which the melting point is > 300 °C.
Compound `O=S(=O)(NC1=NCc2cc(Cl)ccc2N1)c1ccc2ccccc2c1` [10h, N-(6-chloro-1,4-dihydroquinazolin-2-yl)naphthalene-2-sulfonamide] registered a melting point of 207 to 209 °C.
`Nc1nc2ccccc2n1S(=O)(=O)c1ccc2ccccc2c1` [11c, 1-(naphthalene-2-sulfonyl)-1H-benzimidazol-2-amine] had a melting point of 188 to 194 °C.
Compound `Nc1nc2cc(Cl)ccc2n1S(=O)(=O)c1cccc2ccccc12` [11d, 5-chloro-1-(naphthalene-1-sulfonyl)-1H-benzimidazol-2-amine] registered a melting point of 225 to 229 °C. Besides, the “concentration at which activity (statistically significant suppression of cell viability) was seen” value in series [4] (24 h) amounted to 1 µM.
`O=S(=O)(Nc1ncc2ccccc2n1)c1cccc2ccccc12` [Dehydrogenated-10f, N-(quinazolin-2-yl)naphthalene-1-sulfonamide]: in series [3] (MLMs), the Metabolic pathway result is listed as “double hydroxylation”. In series [3] (120 min), this compound came in with a fraction remaining at 2 h, 50 µM of 17.5%.
On to `Cn1c(=O)c2c(ncn2C)n(C)c1=O` [caffeine, reference compound], for which, in series [5] (200 µM), the “permeability coefficient Pe” value is 12.2 ± 0.9 × 10^-6 cm/s.
On to `COc1cccc2c1C(=O)c1c(O)c3c(c(O)c1C2=O)C[C@@](O)(C(=O)CO)C[C@@H]3O[C@H]1C[C@H](N)[C@H](O)[C@H](C)O1` [doxorubicin, reference compound], for which the IC50 turned out to be 1.4 µM in series [6] and 1.1 µM in series [4] (Homo sapiens, 24 h). Further, the “viability of the cells compared to vehicle control” value in series [4] was determined as 47.5%.
